Data set [1] has as its target T1, full-length NDM-1 (Klebsiella pneumoniae, UniProt C7C422). In kind it is biochemical, E. coli. Also on record: The full-length NDM-1 enzyme was isolated to 95% purity as indicated by the SDS-PAGE; His6 tag (pET30a leader) (N, cleaved yes); made in house; host or cells: E. coli BL21 (DE3) carrying pET30a-NDM-1. From the text:
(§1) Benzylpenicillin (Sangon, Shanghai, China), ampicillin (Sangon, Shanghai, China), cefuroxime (Sigma, St. Louis, USA), ceftazidime (TCI, Shanghai, China), ceftizoxime (TCI, Shanghai, China), cefpiramide (Shandong Lukang, Shandong, China), imipenem (Shenzhen Haibin, Guangdong, China), meropenem (Zhejiang Hisun, Zhejiang, China) and aztreonam (Hunan Kelun, Hunan, China) were used as substrates for determining the steady-state kinetic constants.
(§2) Hydrolysis of the antibiotics by NDM-1 was followed by monitoring the variation in the absorbance of the β-lactam solution in 20 mM HEPES buffer, pH 6.8, 0.25 M NaCl, 2 mM 1,4-Dithio-DL-threitol (DTT) (Sangon, Shanghai, China), 100 µM Zn(NO3)2. All the measurements were made on a UV−1800 spectrophotometer (Mapada, Shanghai, China). The reactions were performed in a total volume of 100 µl at 30°C. BSA (20 µg/ml) was added to diluted solutions of β-lactamase in order to prevent enzyme denaturation. […] The extinction coefficients and wavelengths used in the assays were those described by Laraki et al and Thomas et al. The steady-state kinetic parameters (K m and k cat) were determined more than three times by fitting the concentration dependence of initial rate measurements to the Michaelis−Menten equation using GraphPad Prism (GraphPad Software, La Jolla, America).

The subject of data set [2] is E. coli BL21 (DE3)/pET30a-NDM-1. The experiment in a line: microbe, parasite or virus in culture. The conditions noted are these: for sensitization of the strain to clinically achievable concentrations of meropenem: inhibitor at the level of 100 µM; for sensitization of the strain to clinically achievable concentrations of meropenem / synergistic antibacterial activity with meropenem: result in words. Format: cell-based. How it is done: E. coli BL21 (DE3) was used as a control in the experiment. E. coli BL21 (DE3)/pET30a-NDM-1 was grown overnight in MH broth media (Tianhe Microbial Agents, Hangzhou, China) containing kanamycin (30 µg/ml) at 37°C. Determination of antibacterial synergy was completed using a twofold serial dilution method, as recommended by CLSI guidelines. […] The 96-well microplates were incubated at 37°C with continuous shaking for 18 h and a reading at 630 nm was taken to determine minimum inhibitory concentrations (MICs), [22]. […] Each concentration reading was repeated three times. All of the above experiments were repeated at least twice.

Data set [3] has as its target T1, full-length NDM-1. The experiment in a line: biochemical.
Protocol: The compounds to be tested were dissolved in DMSO prior to incubation with the enzyme, with the final concentration of DMSO in the assay not exceeding 0.5% (vol/vol). At concentrations below 0.5%, no effect of DMSO on the enzyme activity was observed. IC50s were deduced from a plot of percent loss of activity versus inhibitor concentration. […] The precision of these determinations was within the range of precision 10%.
Data set [4] is described as follows: Solubility behaviour in testing buffer of the IC50 assay. Format: physicochemical. The conditions noted are these: result in words.
Data set [5] relates to E. coli BL21 (DE3). In words: MIC of meropenem against control strain. In kind it is cell-based. The conditions noted are these: Escherichia coli. How it is done:
E. coli BL21 (DE3)/pET30a-NDM-1, which is similar to clinical NDM-1-carrying isolates and safer than clinical isolates, was used to evaluate the potential ability of NDM-1 inhibitors to reverse NDM-1-mediated carbapenem resistance in bacteria. E. coli BL21 (DE3) was used as a control in the experiment. E. coli BL21 (DE3)/pET30a-NDM-1 was grown overnight in MH broth media (Tianhe Microbial Agents, Hangzhou, China) containing kanamycin (30 µg/ml) at 37°C. Determination of antibacterial synergy was completed using a twofold serial dilution method, as recommended by CLSI guidelines. […] The 96-well microplates were incubated at 37°C with continuous shaking for 18 h and a reading at 630 nm was taken to determine minimum inhibitory concentrations (MICs), [22]. […] Each concentration reading was repeated three times. All of the above experiments were repeated at least twice.

Data set [6] relates to CC(C)(O/N=C(\C(=O)N[C@@H]1C(=O)N2C(C(=O)[O-])=C(C[n+]3ccccc3)CS[C@H]12)c1csc(N)n1)C(=O)O. The experiment in a line: purified protein, by the assay type. In kind it is biochemical, E. coli. The conditions noted are these: other: substrate hydrolysis, 20 mM HEPES pH 6.8, 30°C.
From the text: as §1, §2

The subject of data set [7] is CC1(C)S[C@@H]2[C@H](NC(=O)Cc3ccccc3)C(=O)N2[C@H]1C(=O)O. The experiment in a line: purified protein, by the assay type. Format: biochemical, E. coli. The conditions noted are these: other: substrate hydrolysis, 20 mM HEPES pH 6.8, 30°C.
From the text: as §1, §2

Data set [8] concerns CC1(C)S[C@@H]2[C@H](NC(=O)[C@H](N)c3ccccc3)C(=O)N2[C@H]1C(=O)O. The experiment in a line: purified protein, by the assay type. Format: biochemical, E. coli. The conditions noted are these: other: substrate hydrolysis, 20 mM HEPES pH 6.8, 30°C.
From the text: as §1, §2

For data set [9], the system named is CO/N=C(\C(=O)N[C@@H]1C(=O)N2C(C(=O)O)=C(COC(N)=O)CS[C@H]12)c1ccco1. The experiment in a line: purified protein, by the assay type. Format: biochemical, E. coli. The conditions noted are these: other: substrate hydrolysis, 20 mM HEPES pH 6.8, 30°C.
From the text: as §1, §2

The test system of data set [10] is C[C@@H](O)[C@H]1C(=O)N2C(C(=O)O)=C(SCCN=CN)C[C@H]12. The experiment in a line: purified protein, by the assay type. The conditions noted are these: other: substrate hydrolysis, 20 mM HEPES pH 6.8, 30°C. In kind it is biochemical, E. coli.
From the text: as §1, §2

Data set [11] deals with CO/N=C(\C(=O)N[C@@H]1C(=O)N2C(C(=O)O)=CCS[C@H]12)c1csc(N)n1. The experiment in a line: purified protein, by the assay type. The conditions noted are these: other: substrate hydrolysis, 20 mM HEPES pH 6.8, 30°C.
The test system of data set [12] is Cc1cc(O)c(C(=O)N[C@@H](C(=O)N[C@@H]2C(=O)N3C(C(=O)O)=C(CSc4nnnn4C)CS[C@H]23)c2ccc(O)cc2)cn1. In words: purified protein, by the assay type. The conditions noted are these: other: substrate hydrolysis, 20 mM HEPES pH 6.8, 30°C.
Setting [13] is: substrate hydrolysis, 20 mM HEPES pH 6.8, 30°C.

Where “and” joins values, the source holds several entries; their conditions need not be identical. Equal values may be shown once. Read-outs that look alike come from different tables or passages of the source. Some results are limits rather than exact numbers.

What is called IC50 is the point on the concentration scale where inhibition reaches its midpoint. Usually kcat stands for the number of substrate molecules converted per active site and unit of time at saturation. Broadly, the kcat/Km is the second-order rate constant that governs catalysis at low substrate concentration.

T1 sequence (C7C422 29-270 limits assumed): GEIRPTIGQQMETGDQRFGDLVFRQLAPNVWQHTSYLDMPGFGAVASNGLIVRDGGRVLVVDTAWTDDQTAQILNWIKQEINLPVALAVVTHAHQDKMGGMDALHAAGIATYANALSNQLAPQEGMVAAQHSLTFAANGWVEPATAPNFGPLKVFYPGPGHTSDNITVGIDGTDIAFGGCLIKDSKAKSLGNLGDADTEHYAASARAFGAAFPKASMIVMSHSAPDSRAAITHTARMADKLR

For the compound `CO/N=C(\C(=O)N[C@@H]1C(=O)N2C(C(=O)O)=C(COC(N)=O)CS[C@H]12)c1ccco1` [Cefuroxime, cefuroxime], the K m in data set [1] (setting [13]) was 12 µM and 12 ± 1 µM.
`Cc1cc(O)c(C(=O)N[C@@H](C(=O)N[C@@H]2C(=O)N3C(C(=O)O)=C(CSc4nnnn4C)CS[C@H]23)c2ccc(O)cc2)cn1` [Cefpiramide, cefpiramide] displayed a K m in data set [1] (setting [13]) of 39 ± 3 µM.
Consider `CC(C)(O/N=C(\C(=O)N[C@@H]1C(=O)N2C(C(=O)[O-])=C(C[n+]3ccccc3)CS[C@H]12)c1csc(N)n1)C(=O)O` [Ceftazidime, ceftazidime], for which the K m in [1] (setting [13]) came to 129 ± 9 µM; in data set [1] (substrate hydrolysis, 20 mM HEPES pH 6.8, 30°C, listed as ceftazidime) it was 129 µM.
As for `CC1(C)S[C@@H]2[C@H](NC(=O)Cc3ccccc3)C(=O)N2[C@H]1C(=O)O` [Benzylpenicillin], the K m in data set [1] (setting [13]) is 13 ± 1 µM; in data set [1] (substrate hydrolysis, 20 mM HEPES pH 6.8, 30°C, listed as benzylpenicillin) it was 13 µM.
Take `O=C(O)C(C(=O)O)c1ccsc1` [Compound 5, 3-thiophenemalonic acid]: the “MICs of meropenem in combination with NDM-1 inhibitors” value (“MICs … with NDM-1 inhibitors” below) in data set [2] (inhibitor at 6.25 µM) was 256 µg/mL; in [2] (inhibitor at 12.5 µM), 128 µg/mL; in data set [2] (inhibitor at 25.0 µM), 64 µg/mL; in data set [2] (inhibitor at 50.0 µM), 32 µg/mL; in [2] (inhibitor at 100.0 µM), 16 µg/mL. The “sensitization of the strain to clinically achievable concentrations of meropenem” value in [2] is recorded as “able to sensitize the strain to clinically achievable concentrations of meropenem”. Further, the “synergistic antibacterial activity with meropenem” value (from here on “synergistic antibacterial activity”) in data set [2] is listed as “showed synergistic antibacterial activity”. This compound also registered an IC50 in [3] of 610 µM.
For the compound `C[C@H]1[C@H](NC(=O)/C(=N\OC(C)(C)C(=O)O)c2csc(N)n2)C(=O)N1S(=O)(=O)O` [Aztreonam, aztreonam], in data set [1] (result in words), the “hydrolysis by NDM-1 / kinetic constants” value was “kinetic constants could not be calculated”.
Regarding `COC(=O)c1cc(OCc2ccccc2)c(C(=O)OC)s1` [Compound 1], the “MICs … with NDM-1 inhibitors” value in [2] (inhibitor at 6.25 µM), in data set [2] (inhibitor at 12.5 µM), in [2] (inhibitor at 25.0 µM) and in data set [2] (inhibitor at 50.0 µM) was 256 µg/mL throughout. The “synergistic antibacterial activity” value in [2] is given as “did not exhibited synergistic antibacterial effect”. Besides, the solubility result in data set [4] is recorded as “precipitated out at high concentrations”. In [3], this compound yielded an IC50 of over 300 µM.
Consider `CC1(C)S[C@@H]2[C@H](NC(=O)[C@H](N)c3ccccc3)C(=O)N2[C@H]1C(=O)O` [Ampicillin, ampicillin], for which the K m is 18 ± 1 µM in data set [1] (setting [13]) and 18 µM in [1] (substrate hydrolysis, 20 mM HEPES pH 6.8, 30°C, listed as ampicillin).
Regarding `COC(=O)c1sc(C(=O)OC)c(OCc2nnn[nH]2)c1OCc1nnn[nH]1` [Compound 3], the “MICs … with NDM-1 inhibitors” value in [2] (inhibitor at 6.25 µM) came to 256 µg/mL; in data set [2] (inhibitor at 12.5 µM), 256 µg/mL; in data set [2] (inhibitor at 25.0 µM), 128 µg/mL; in data set [2] (inhibitor at 50.0 µM), 32 µg/mL; in data set [2] (inhibitor at 100.0 µM), 32 µg/mL. Further, the “synergistic antibacterial activity” value in data set [2] is “showed synergistic antibacterial activity”. Further, the solubility entry in [4] is listed as “better solubility”. Besides, the midpoint of inhibition in data set [3], the IC50, lay at 980 µM.
As for `O=C(O)C(C(=O)O)c1cc(Cc2nnn[nH]2)sc1Cc1nnn[nH]1` [Compound 4], the “MICs … with NDM-1 inhibitors” value was 128 µg/mL in data set [2] (inhibitor at 6.25 µM); 64 µg/mL in data set [2] (inhibitor at 12.5 µM); 64 µg/mL in data set [2] (inhibitor at 25.0 µM); 32 µg/mL in [2] (inhibitor at 50.0 µM); 16 µg/mL in data set [2] (inhibitor at 100.0 µM). Besides, the “sensitization of the strain to clinically achievable concentrations of meropenem” value in [2] is listed as “able to sensitize the strain to clinically achievable concentrations of meropenem”. In [2], the “synergistic antibacterial activity” value is “showed synergistic antibacterial activity”. Further, in data set [4], the solubility result is “stronger solubility”. Also, the IC50 in [3] is 280 µM.
In the case of `C[C@@H](O)[C@H]1C(=O)N2C(C(=O)O)=C(SCCN=CN)C[C@H]12` [Imipenem, imipenem], the K m in data set [1] (setting [13]) is 127 ± 11 µM; in data set [1] (substrate hydrolysis, 20 mM HEPES pH 6.8, 30°C, listed as imipenem) it was 127 µM.
In the case of `COC(=O)c1sc(C(=O)OC)c(OCc2ccccc2)c1OCc1ccccc1` [Compound 2], the “MICs … with NDM-1 inhibitors” value in data set [2] (inhibitor at 6.25 µM), in data set [2] (inhibitor at 12.5 µM), in [2] (inhibitor at 25.0 µM) and in data set [2] (inhibitor at 50.0 µM) was 256 µg/mL each time. Moreover, in data set [2], the “synergistic antibacterial activity” value is given as “did not exhibited synergistic antibacterial effect”. For the same compound, the solubility entry in [4] is recorded as “precipitated out at high concentrations”. Besides, in [3], the IC50 was over 100 µM.
As to `C[C@@H](O)[C@H]1C(=O)N2C(C(=O)O)=C(S[C@@H]3CN[C@H](C(=O)N(C)C)C3)[C@H](C)[C@H]12` [Meropenem, meropenem], the MIC in data set [2] (Escherichia coli) amounted to 256 µg/mL; in data set [5], 2 µg/mL. In addition, the K m in data set [1] (setting [13]) worked out at 68 ± 6 µM; in data set [1] (substrate hydrolysis, 20 mM HEPES pH 6.8, 30°C, listed as meropenem) it was 68 µM. The compound also had a V max in data set [1] (setting [13]) of 2.0 ± 0.15 µM/s. Moreover, in data set [1] (setting [13]), the k cat amounted to 4.0 s⁻¹.
On to “full-length NDM-1 (Klebsiella pneumoniae)”, for which the turnover number (kcat) is 3.6 s⁻¹ in [6]; 10 s⁻¹ and 16.7 s⁻¹ in data set [7]; 10 s⁻¹ and 11.4 s⁻¹ in [8]; 2.6 s⁻¹ in data set [9]; 10 s⁻¹ and 10.8 s⁻¹ in data set [10]; 3 s⁻¹ in [11]. The turnover number (kcat) in [12] was determined as 1.4 s⁻¹. Besides, the kcat/Km was 30000 M⁻¹ s⁻¹ in [6]; 1.28e+06 M⁻¹ s⁻¹ in data set [7]; 630000 M⁻¹ s⁻¹ in data set [8]; 220000 M⁻¹ s⁻¹ in [9]; 90000 M⁻¹ s⁻¹ in data set [10]; 100000 M⁻¹ s⁻¹ in data set [11]. Further, the catalytic efficiency (kcat/Km) in [12] was found to be 40000 M⁻¹ s⁻¹.
Consider `CO/N=C(\C(=O)N[C@@H]1C(=O)N2C(C(=O)O)=CCS[C@H]12)c1csc(N)n1` [Ceftizoxime, ceftizoxime], for which the K m in [1] (setting [13]) turned out to be 29 ± 2 µM.

These data come from paper PMC3652859, “Inhibitor Discovery of Full-Length New Delhi Metallo-β-Lactamase-1 (NDM-1)” (PLoS ONE, 2013).
